Data as given in US20130345257A1, “COMPOSITION FOR LUPUS NEPHRITIS AND METHODS OF MAKING AND USING THE SAME” (The Regents of the University of California, priority 2012, published 2013).
“Also recorded” adds a separate entry of the source.

What was measured:
[1] = system: CD4+ regulatory T cells (CD4+ Foxp3+) in PBMC; assay: CD4+ Tregs within PBMC of treated mice; assay type: in vivo, mouse; details: LAQ 1 or 25 mg/kg; compared to the other groups
Excerpt: FIG. 7 depicts an exemplary embodiment: A) illustrates gating technique used to identify CD4+ regulatory T cells (CD4+ Tregs), which are shown as the dotted cloud inside the box insert and also labeled as CD4+ Foxp3+.

[2] = system: monocyte/macrophages (CD11b^+Ly6C^−Ly6G^−) and CD4^+ T cells; assay: Intracellular cytokines in splenocytes of treated mice after TLR agonist or PMA plus ionomycin stimulation; assay type: cell-based, mouse; details: vs vehicle
Experimental: For intracellular cytokines, whole splenocytes were stimulated with a) LPS (1 μg/mL) (Sigma), imiquimod, a toll like receptor 7 (TLR7) agonist, or ODN, a TLR9 agonist (both at 10 μg/mL) in 2% FBS RPMI 1640 for 24 hours in the presence of monensin (BioLegend) for the last 12 hours; or b) phorbol 12-myristate 13-acetate (PMA, 50 ng/ml) plus ionomycin (500 ng/ml) in the presence of monensin for 5 hours. Monensin was used to prevent cytokine secretion and optimize intracellular staining Intracellular expression of cytokines in CD4^+ cells and macrophages (CD11b^+Ly6C^−Ly6G^−) was analyzed by intracellular flow cytometry. Single-cell suspensions from spleen or kidneys were stained for extracellular markers for 20 min at 4° C. in PBS/1% FBS. Intracellular staining for Foxp3 and cytokines was performed using the Foxp3 Fixation/Permeabilization kit according to the manufacturer's protocol (eBioscience). Cells were acquired on a FACS LSR II (BD) and data was analyzed using Flowjo (Tree Star).

Structure (SMILES): CCN(C(=O)c1c(O)c2c(Cl)cccc2n(C)c1=O)c1ccccc1 [LAQ, 5-chloro-N-ethyl-4-hydroxy-1-methyl-2-oxo-N-phenyl-1,2-dihydroquinoline-3-carboxamide]
- Percentage of CD4+ Tregs within PBMC [1]: significantly higher percent
- IL-10^+ M/M ([2]; splenic M/M after TLR agonist stimulation, PU^lo animals, 7 weeks of treatment): Significantly more
- M/M producing TNF-α ([2]; splenic M/M after TLR agonist stimulation, listed as laquinimod): unable to respond; also recorded: significantly fewer
- CD4^+ T cells producing IFN-γ ([2]; splenocytes, PMA plus ionomycin): significantly fewer
